Results: US5670482A, “Neuropeptide Y antagonists” (Glaxo Wellcome Inc., priority 1992, dated 1997)
Positions of bridges follow the written chain, without caps; N, C: chain ends. Non-standard residues stand in square brackets, D forms with d. Residues, ends and D or L forms follow the SMILES beside them. Chains are numbered I, II in the order given. *: point of attachment. Desaminotyrosyl = O=C(CCc1ccc(O)cc1)*; Orn = NCCC[C@H](N)C(=O)O; Dap = NC[C@H](N)C(=O)O; X1 = Clc1cccc(Cl)c1C*; Aib = CC(C)(N)C(=O)O

What was measured:
[1] = molecular target: NPY receptors in rat brain membranes; assay: Radioreceptor binding assay (3H-NPY, rat brain membranes); details: 37° C.
Protocol: Rat brain membranes were incubated with ^3 H-NPY up to equilibrium at 37° C. in the presence of several peptides at different concentrations and in a final volume of 1 ml. Non-specific binding was determined by adding 100 nM of cold NPY. At the end of the incubation period the samples were either filtered (GF/C filter), or 0.5 ml of cold incubation buffer was added and the tubes centrifuged at 15,000 g for 10 min. The supernatant was discarded and the pellet or filters resuspended and counted by liquid scintillation. Results were processed using a computer programme that calculated IC50, Kd, Bmax and Hill coefficient by linear regression. IC50 results where available are shown in column (a) of the Table.

[2] = tested on: Human erythroleukemic (HEL) cells; assay: Intracellular calcium measurements in HEL cells (Fura-2); type: cell-based; details: for HEL CELLS % Fluor (c): agonistic activity: fluorescence induced by 100 nM of the peptide; for IC50: antagonism of 5 nM NPY-induced calcium signal, read-out: HEL CELLS IC50 (d); for HEL CELLS % INHIB (b): inhibition of increase in HEL cell intracellular calcium induced by 5 nM NPY, 100 nM compound
Protocol: Human erythroleukemic (HEL) cells were loaded with Fura-2 (1 μM for 1 h), washed and then placed in a cuvette (5×10^5 cells in 2.5 ml) and excited simultaneously at 340 and 380 nm in a SLM spectrofluorometer. Fluorescence changes after the addition of NPY and/or peptide analogs were followed by recording emission at 510 nm. Calcium concentrations can be determined through a computer programme by using the ratio of fluorescence 340/380 nm. The agonistic activity of peptide analogs was tested by recording the fluorescence induced upon stimulation of the cells with 100 nM of the peptide and the antagonistic activity by observing the decrease in fluorescence induced by 5 nM NPY in the presence of the analog The results where available are indicated in column (c) of the Table.
The inhibition of the increase in the HEL cell intracellular calcium (induced by 5 nM NPY) achieved by 100 nM concentrations of each compound is shown in column (b) of the Table.

## CC[C@H](C)[C@H](N)C(=O)N[C@@H](CC(N)=O)C(=O)N1CCC[C@H]1C(=O)N[C@H](C(=O)N[C@@H](Cc1ccc(O)cc1)C(=O)N[C@@H](CCCNC(=N)N)C(=O)N[C@@H](CC(C)C)C(=O)N[C@@H](CCCNC(=N)N)C(=O)N[C@@H](Cc1ccc(O)cc1)C(N)=O)[C@@H](C)OC [Example 2, IleAsnPro(O-MethylThr)TyrArgLeuArgTyr-NH2] (H-INPT(Me)YRLRY-NH2)
[1]
  IC50: 280 nM
[2]
  HEL CELLS % Fluor (c): 0%
  IC50: 5 nM
  HEL CELLS % INHIB (b): 100%

## CC[C@H](C)[C@H](N)C(=O)N[C@@H](CSSC[C@H](NC(=O)[C@@H](N)[C@@H](C)CC)C(=O)N1CCC[C@H]1C(=O)N[C@H](C(=O)N[C@@H](Cc1ccc(O)cc1)C(=O)N[C@@H](CCCNC(=N)N)C(=O)N[C@@H](CC(C)C)C(=O)N[C@@H](CCCNC(=N)N)C(=O)N[C@@H](Cc1ccc(O)cc1)C(N)=O)[C@@H](C)CC)C(=O)N1CCC[C@H]1C(=O)N[C@H](C(=O)N[C@@H](Cc1ccc(O)cc1)C(=O)N[C@@H](CCCNC(=N)N)C(=O)N[C@@H](CC(C)C)C(=O)N[C@@H](CCCNC(=N)N)C(=O)N[C@@H](Cc1ccc(O)cc1)C(N)=O)[C@@H](C)CC [Example 13, (IleCysProIleTyrArgLeuArgTyr-NH2)2] (I: H-ICPIYRLRY-NH2 / II: H-ICPIYRLRY-NH2; disulfide I:2-II:2 (inferred); N-terminus assumed)
[1]
  IC50: 35 nM
[2]
  HEL CELLS % Fluor (c): 0%
  IC50: 0.75 nM
  HEL CELLS % INHIB (b): 100%

## CC[C@H](C)[C@H](N)C(=O)N[C@H]1CC(=O)NC[C@@H](C(=O)N[C@@H](Cc2ccc(O)cc2)C(=O)N[C@@H](CCCNC(=N)N)C(=O)N[C@@H](CC(C)C)C(=O)N[C@@H](CCCNC(=N)N)C(=O)N[C@@H](Cc2ccc(O)cc2)C(N)=O)NC(=O)[C@@H]2CCCN2C(=O)[C@@H](NC(=O)[C@@H](N)[C@@H](C)CC)CC(=O)NC[C@@H](C(=O)N[C@@H](Cc2ccc(O)cc2)C(=O)N[C@@H](CCCNC(=N)N)C(=O)N[C@@H](CC(C)C)C(=O)N[C@@H](CCCNC(=N)N)C(=O)N[C@@H](Cc2ccc(O)cc2)C(N)=O)NC(=O)[C@@H]2CCCN2C1=O [Example 7, IleAspProDprTyrArgLeuArgTyr-NH2,Cyclic(2,4'),(2',4)-Diamide] (I: H-IDP[Dap]YRLRY-NH2 / II: H-IDP[Dap]YRLRY-NH2; amide I:2-II:4, I:4-II:2; N-terminus assumed)
[1]
  IC50: 15 nM
[2]
  HEL CELLS % Fluor (c): 0%
  IC50: 1.5 nM
  HEL CELLS % INHIB (b): 100%

## CC[C@H](C)[C@H](N)C(=O)N[C@H]1CC(=O)NCCC[C@@H](C(=O)N[C@@H](Cc2ccc(O)cc2)C(=O)N[C@@H](CCCNC(=N)N)C(=O)N[C@@H](CC(C)C)C(=O)N[C@@H](CCCNC(=N)N)C(=O)N[C@@H](Cc2ccc(O)cc2)C(N)=O)NC(=O)[C@@H]2CCCN2C(=O)[C@@H](NC(=O)[C@@H](N)[C@@H](C)CC)CC(=O)NCCC[C@@H](C(=O)N[C@@H](Cc2ccc(O)cc2)C(=O)N[C@@H](CCCNC(=N)N)C(=O)N[C@@H](CC(C)C)C(=O)N[C@@H](CCCNC(=N)N)C(=O)N[C@@H](Cc2ccc(O)cc2)C(N)=O)NC(=O)[C@@H]2CCCN2C1=O [Example 16, IleAspProOrnTyrArgLeuArgTyrNH2,Cyclic(2,4'),(2',4)-Diamide] (I: H-IDP[Orn]YRLRY-NH2 / II: H-IDP[Orn]YRLRY-NH2; amide I:2-II:4, I:4-II:2; N-terminus assumed)
[1]
  IC50: < 0.1 nM
[2]
  HEL CELLS % Fluor (c): 0%
  IC50: 0.25 nM
  HEL CELLS % INHIB (b): 100%

## CC[C@H](C)[C@H](N)C(=O)N[C@H]1CNC(=O)C[C@@H](C(=O)N[C@@H](Cc2ccc(O)cc2)C(=O)N[C@@H](CCCNC(=N)N)C(=O)N[C@@H](CC(C)C)C(=O)N[C@@H](CCCNC(=N)N)C(=O)N[C@@H](Cc2ccc(O)cc2)C(N)=O)NC(=O)[C@@H]2CCCN2C(=O)[C@@H](NC(=O)[C@@H](N)[C@@H](C)CC)CNC(=O)C[C@@H](C(=O)N[C@@H](Cc2ccc(O)cc2)C(=O)N[C@@H](CCCNC(=N)N)C(=O)N[C@@H](CC(C)C)C(=O)N[C@@H](CCCNC(=N)N)C(=O)N[C@@H](Cc2ccc(O)cc2)C(N)=O)NC(=O)[C@@H]2CCCN2C1=O [Example 8, IleDprProAspTyrArgLeuArgTyr-NH2,Cyclic(2,4'),(2',4)-Diamide] (I: H-I[Dap]PDYRLRY-NH2 / II: H-I[Dap]PDYRLRY-NH2; amide I:2-II:4, I:4-II:2; N-terminus assumed)
[1]
  IC50: 7.5 nM
[2]
  HEL CELLS % Fluor (c): 0%
  IC50: 2.5 nM
  HEL CELLS % INHIB (b): 100%

## CC[C@H](C)[C@H](N)C(=O)N[C@@H](CC(N)=O)C(=O)N1CCC[C@H]1C(=O)NC(CCCC(NC(=O)[C@@H]1CCCN1C(=O)[C@H](CC(N)=O)NC(=O)[C@@H](N)[C@@H](C)CC)C(=O)N[C@@H](Cc1ccc(O)cc1)C(=O)N[C@@H](CCCNC(=N)N)C(=O)N[C@@H](CC(C)C)C(=O)N[C@@H](CCCNC(=N)N)C(=O)N[C@@H](Cc1ccc(O)cc1)C(N)=O)C(=O)N[C@@H](Cc1ccc(O)cc1)C(=O)N[C@@H](CCCNC(=N)N)C(=O)N[C@@H](CC(C)C)C(=O)N[C@@H](CCCNC(=N)N)C(=O)N[C@@H](Cc1ccc(O)cc1)C(N)=O (stereo partly drawn) [Example 14, IleAsnPro TyrArgLeuArgTyr-NH2 (SEQ.ID.No:17) Pim IleAsnPro TyrArgLeuArgTyr-NH2 (SEQ.ID.No:17)]
[1]
  IC50: 1.9 nM
[2]
  HEL CELLS % Fluor (c): 0%
  IC50: 5 nM
  HEL CELLS % INHIB (b): 100%

## CC[C@H](C)[C@H](N)C(=O)N[C@H]1CCC(=O)NCCC[C@@H](C(=O)N[C@@H](Cc2ccc(O)cc2)C(=O)N[C@@H](CCCNC(=N)N)C(=O)N[C@@H](CC(C)C)C(=O)N[C@@H](CCCNC(=N)N)C(=O)N[C@@H](Cc2ccc(O)cc2)C(N)=O)NC(=O)[C@@H]2CCCN2C(=O)[C@@H](NC(=O)[C@@H](N)[C@@H](C)CC)CCC(=O)NCCC[C@@H](C(=O)N[C@@H](Cc2ccc(O)cc2)C(=O)N[C@@H](CCCNC(=N)N)C(=O)N[C@@H](CC(C)C)C(=O)N[C@@H](CCCNC(=N)N)C(=O)N[C@@H](Cc2ccc(O)cc2)C(N)=O)NC(=O)[C@@H]2CCCN2C1=O [Example 15, IleGluProOrnTyrArgLeuArgTyr-NH2,Cyclic(2,4'),(2',4)-Diamide] (I: H-IEP[Orn]YRLRY-NH2 / II: H-IEP[Orn]YRLRY-NH2; amide I:2-II:4, I:4-II:2; N-terminus assumed)
[1]
  IC50: < 0.1 nM
[2]
  HEL CELLS % Fluor (c): 0%
  IC50: 0.25 nM
  HEL CELLS % INHIB (b): 100%

## CC[C@H](C)[C@H](NC(=O)CCc1ccc(O)cc1)C(=O)N[C@@H](CC(N)=O)C(=O)N[C@@H](CC(C)C)C(=O)N[C@H](C(=O)N[C@@H](Cc1ccc(O)cc1)C(=O)N[C@@H](CCCNC(=N)N)C(=O)N[C@@H](CC(C)C)C(=O)N[C@@H](CCCNC(=N)N)C(=O)N[C@@H](Cc1ccc(O)cc1)C(N)=O)[C@@H](C)CC [Example 18, desNH2 TyrIleAsnLeuIleTyrArgLeuArgTyr-NH2] (Desaminotyrosyl-INLIYRLRY-NH2)
[1]
  IC50: 17 nM
[2]
  HEL CELLS % Fluor (c): 28%
  HEL CELLS % INHIB (b): 62%

## IleCysProCysTyrArgLeuArgTyr-NH2,Cyclic(2,2'), (4,4')-Disulfide Dimer and IleCysProCysTyrArgLeuArgTyr-NH2,Cyclic(2,4'),(4,2')-Disulfide Dimer [Example 6]
[1]
  IC50: 250 nM
[2]
  HEL CELLS % Fluor (c): 0%
  IC50: 2 nM
  HEL CELLS % INHIB (b): 100%

## CC[C@H](C)[C@H](N)C(=O)N[C@@H](CC(N)=O)C(=O)N1CCC[C@H]1C(=O)NC(C)(C)C(=O)N[C@@H](Cc1ccc(OCc2c(Cl)cccc2Cl)cc1)C(=O)N[C@@H](CCCNC(=N)N)C(=O)N[C@@H](CC(C)C)C(=O)N[C@@H](CCCNC(=N)N)C(=O)N[C@@H](Cc1ccc(O)cc1)C(N)=O [Example 3, IleAsnProAib[O-(2,6-Dichlorobenzyl)Tyr]ArgLeuArgTyr-NH2] (H-INP[Aib]Y(X1)RLRY-NH2; N-terminus assumed)
[1]
  IC50: 350 nM
[2]
  HEL CELLS % Fluor (c): 0%
  IC50: 8 nM
  HEL CELLS % INHIB (b): 100%
